Measured values from ChEMBL document CHEMBL1129579, “Carbohydrates in an acidic multivalent assembly: nanomolar P-selectin inhibitors” (J Med Chem, 1996).

Target: T1, P-selectin (Homo sapiens, UniProt P16109)
T1 sequence (P16109 whole entry): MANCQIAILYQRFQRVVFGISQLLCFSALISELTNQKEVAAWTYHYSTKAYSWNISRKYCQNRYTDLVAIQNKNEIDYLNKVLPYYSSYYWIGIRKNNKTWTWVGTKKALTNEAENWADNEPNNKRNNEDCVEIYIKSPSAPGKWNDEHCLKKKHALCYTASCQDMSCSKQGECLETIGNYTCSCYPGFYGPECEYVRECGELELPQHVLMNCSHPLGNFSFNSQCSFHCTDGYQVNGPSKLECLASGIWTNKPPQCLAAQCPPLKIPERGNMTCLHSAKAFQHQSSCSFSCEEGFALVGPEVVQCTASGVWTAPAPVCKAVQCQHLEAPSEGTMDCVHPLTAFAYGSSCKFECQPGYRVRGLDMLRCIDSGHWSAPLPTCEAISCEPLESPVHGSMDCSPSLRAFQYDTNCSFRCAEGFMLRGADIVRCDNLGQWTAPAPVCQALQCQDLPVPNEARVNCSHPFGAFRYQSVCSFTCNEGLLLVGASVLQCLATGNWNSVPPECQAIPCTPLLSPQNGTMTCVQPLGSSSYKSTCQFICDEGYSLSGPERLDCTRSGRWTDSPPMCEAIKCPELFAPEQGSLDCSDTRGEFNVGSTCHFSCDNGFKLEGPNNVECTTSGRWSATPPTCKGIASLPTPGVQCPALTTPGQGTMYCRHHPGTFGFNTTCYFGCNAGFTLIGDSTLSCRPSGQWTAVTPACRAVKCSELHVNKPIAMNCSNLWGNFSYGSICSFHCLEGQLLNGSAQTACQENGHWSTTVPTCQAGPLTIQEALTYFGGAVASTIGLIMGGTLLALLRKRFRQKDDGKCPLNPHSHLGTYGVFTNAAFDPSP
Test: Inhibitory activity against Selectin P IgG chimera binding to HL-60 cells, by binding to Selectin P
Type: cell-based

Row | IC50 [nM] | SMILES
1 | 2 | CCCCCCCCCCCCC#CC#CCCCCCCCCC(=O)NCCSCCCN(C(C)=O)[C@@H]1O[C@@H](CO)[C@@H](O[C@@H]2O[C@@H](CO)[C@H](O)[C@H](OCC(=O)O)[C@@H]2O)[C@H](O[C@@H]2O[C@@H](C)[C@@H](O)[C@H](O)[C@@H]2O)[C@@H]1O
2 | 500 | CCCCCCCCCCCCC#CC#CCCCCCCCCC(=O)NCCO
